Assay results taken from patent US11957127B1, “1,3-bis(naphthalen-2-yloxy)propan-2-one as an eco-friendly insecticidal agent against Spodoptera littoralis (boisd.)” (priority 2023, dated 2024).
Values after ≈ are worked out from the molar mass of the structure shown. Read-outs that look alike come from different tables or passages of the source.

Tested on: Spodoptera littoralis
Assay: Insecticidal bioassay screening (castor leaf dip, larval mortality)
Assay type: in vivo
Details: for Toxic ratio: 72 h, fenoxycarb's LC50 / compound's LC50 × 100
Procedure: Five concentrations (200, 100, 50, 25, 12.5 ppm) were designed for this synthetic compound and the reference fenoxycarb compound as the dynamic ingredients based on ppm via diluting the commercial formulation.
In this experiment, castor leaves are immersed in each of the previously prepared concentrations of the components for 10 seconds and then left to dry for 60 minutes. Larvae of the second and fourth instars of each checked strain are prepared with treated leaves in gauze-covered glass containers for 72 hrs. An untreated control is made in which leaves are dipped in triton x-100 and distilled water only. Then the preserved leaves were removed & fresh, untreated leaves were provided for 72 hours. Three replicates (10 larvae each) were checked for each concentration. Daily inspection was carried out for all treatments and mortality percentages were recorded 3 days (72 hours) after treatment. The average mortality percentage was corrected employing Abbott's formula. The corrected mortality rate for each of the previously synthesized compounds is statistically calculated according to Finney (1970). Through this rate, the corresponding concentration test lines (LDP lines) are assessed. Fifty and ninety percent mortality are determined, and the regression values for the checked products were previously evaluated.

[1] = 2nd instar larvae of S. littoralis, after 72 h of treatment
[2] = 4th instar larvae of S. littoralis, after 72 h of treatment

Compound	LC50 [1] [ppm]	LC50 (2nd instar larvae of S. littoralis, after 72 h of treatment, listed as 1,3-bis(naphthalen-2-yloxy)propan-2-one)	Toxic ratio (2nd instar larvae)	LC50 [2] [ppm]	LC50 (4th instar larvae of S. littoralis, after 72 h of treatment, listed as 1,3-bis(naphthalen-2-yloxy)propan-2-one)	Toxic ratio (4th instar larvae)	activity against Spodoptera littoralis (in words) (compared with reference insecticide fenoxycarb)	LC50 (foliar, against Spodoptera littoralis under laboratory conditions (instar not given), read-out: LC50) [µg/mL]	LC50 (Spodoptera littoralis, foliar) [µg/mL]
O=C(COc1ccc2ccccc2c1)COc1ccc2ccccc2c1 [Compound 4, 1,3-bis(naphthalen-2-yloxy)propan-2-one]	38.69	about 38.69 ppm	7.0	86.921	about 86.921 ppm	49.7	active	38.7 (≈ 113 µM)	
CCOC(=O)NCCOc1ccc(Oc2ccccc2)cc1 [Fenoxycarb, reference compound]	2.73		100	43.231		1			2.73 (≈ 9.06 µM)
